Experimental data from PMC10702835, “Recognition of centromere‐specific histone Cse4 by the inner kinetochore Okp1‐Ame1 complex” (EMBO Reports, 2023).

Columns and labels:
Okp1‐Ame1(I195Y) = biological target: T1, Okp1‐Ame1(I195Y) (Saccharomyces cerevisiae, UniProt P38313+P53298, I195Y); test: biochemical; assay type: binding
T1 construct: Full‐length mutant Okp1‐Ame1 complex (EYAA or I195Y as indicated) was tested for its association with FITC‐Cse4^END; 6His (C); made in house; host or cells: E. coli
T1 sequence (P38313 whole entry I195Y): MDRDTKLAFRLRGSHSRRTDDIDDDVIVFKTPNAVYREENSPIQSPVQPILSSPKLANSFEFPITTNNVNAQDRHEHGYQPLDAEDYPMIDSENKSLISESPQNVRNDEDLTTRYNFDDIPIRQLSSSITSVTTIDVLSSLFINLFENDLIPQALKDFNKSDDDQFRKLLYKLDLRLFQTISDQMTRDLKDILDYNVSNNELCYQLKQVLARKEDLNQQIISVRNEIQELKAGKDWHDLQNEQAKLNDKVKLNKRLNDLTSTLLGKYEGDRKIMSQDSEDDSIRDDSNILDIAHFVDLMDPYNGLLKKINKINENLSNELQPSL
T1 sequence (P53298 whole entry): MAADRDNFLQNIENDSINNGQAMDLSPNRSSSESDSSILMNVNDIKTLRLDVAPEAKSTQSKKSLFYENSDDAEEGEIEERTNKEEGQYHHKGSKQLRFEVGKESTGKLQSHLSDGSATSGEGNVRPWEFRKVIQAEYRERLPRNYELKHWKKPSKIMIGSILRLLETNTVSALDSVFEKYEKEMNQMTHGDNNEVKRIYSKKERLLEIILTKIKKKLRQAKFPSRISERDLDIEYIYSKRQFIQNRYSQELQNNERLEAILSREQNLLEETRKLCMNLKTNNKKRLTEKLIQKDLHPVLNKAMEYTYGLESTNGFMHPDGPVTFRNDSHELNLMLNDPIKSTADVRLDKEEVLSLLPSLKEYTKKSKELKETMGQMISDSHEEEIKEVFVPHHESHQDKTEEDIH
Method: (§1) Results of a GST pulldown assay are shown. • The minimal Okp1‐Ame1 complex used for crystallography was tested for its association with FITC‐Cse4^END in a fluorescence polarization experiment.
(§2) Fluorescence polarization assays
(§3) FITC‐Cse4^28‐60 peptide was synthesized by the Tufts University Core Facility. 20 nM of FITC‐Cse4^28‐60 peptide was used in all reactions, and Okp1‐Ame1 concentrations were varied to determine the dissociation constant (K D ), in reaction buffer containing 100 mM HEPES, pH 7.5, 200 mM NaCl, 1 mM TCEP (full‐length Okp1‐Ame1 complex) or reaction buffer with 600 mM NaCl (truncated Okp1‐Ame1 complex).

Okp1(EYAA)‐Ame1 = biological target: T2, Okp1(EYAA)‐Ame1 (Saccharomyces cerevisiae, UniProt P38313+P53298, E235A/Y238A); test: biochemical; assay type: binding
T2 construct: Full‐length mutant Okp1‐Ame1 complex (EYAA or I195Y as indicated) was tested for its association with FITC‐Cse4^END; 6His (C); made in house; host or cells: E. coli
T2 sequence (P38313 whole entry): as the sequence (P38313 whole entry I195Y) above, with Y195I counted along it
T2 sequence (P53298 whole entry E235A/Y238A): as the sequence (P53298 whole entry) above, with E235A, Y238A counted along it
Method: as §1, §2, §3

CC[C@H](C)[C@H](NC(=O)[C@H](CO)NC(=O)[C@H](CCC(N)=O)NC(=O)[C@H](CCC(N)=O)NC(=O)[C@H](CC(=O)O)NC(=O)CNC(=O)[C@H](C)N)C(=O)N[C@@H](CC(N)=O)C(=O)N[C@@H](CC(=O)O)C(=O)N[C@@H](CCCNC(=N)N)C(=O)N[C@@H](C)C(=O)N[C@@H](CC(C)C)C(=O)N[C@@H](CO)C(=O)N[C@@H](CC(C)C)C(=O)N[C@@H](CC(C)C)C(=O)N[C@@H](CCC(N)=O)C(=O)N[C@@H](CCCNC(=N)N)C(=O)N[C@H](C(=O)N[C@@H](CCCNC(=N)N)C(=O)N[C@@H](C)C(=O)N[C@H](C(=O)N[C@@H](CCCCN)C(=O)N[C@@H](CC(N)=O)C(=O)N[C@@H](CC(C)C)C(=O)N[C@@H](Cc1ccccc1)C(=O)N1CCC[C@H]1C(=O)N[C@@H](CCCNC(=N)N)C(=O)N[C@@H](CCCNC(=N)N)C(=O)N[C@@H](CCC(=O)O)C(=O)N[C@@H](CCC(=O)O)C(=O)N[C@@H](CCCNC(=N)N)C(=O)N[C@@H](CCCNC(=N)N)C(=O)N[C@@H](CCCNC(=N)N)C(=O)O)[C@@H](C)O)[C@@H](C)O [Cse4^END]
Kd (Okp1‐Ame1(I195Y)): > 3 µM | Kd (Okp1(EYAA)‐Ame1): > 3 µM
